Results published in article PMC11931565, “Exploring medium and long arm extensions of 1,2,4-triazole derivatives as Candida albicans 14α-demethylase (CYP51) inhibitors” (RSC Medicinal Chemistry, 2025).
≈ marks a conversion by molar mass, not a printed value. Like-named read-outs stand apart in the source and are kept apart here. Numbered stars: 1 amine (or outer) side, 2 acyl side, 3 side chain; on linkers, the order of the positions; unused ones are H or OH. Bridge positions count the residues as written; N and C are the ends. Square brackets hold non-standard residues; d marks the D form. Peptide text beside a SMILES is read from it. * marks the point of attachment. hTyr(3S-OH,4S-OH,3'-OSO3H) = N[C@H](C(=O)O)[C@H](O)[C@@H](O)c1ccc(O)c(OS(=O)(=O)O)c1; Orn(4R-OH,5R-OH) = O=C([C@H](C[C@@H](O)[C@@H](O)N[*:3])N[*:1])[*:2]; Pro(3S-OH,4S-Me) = C[C@H]1CN[C@H](C(=O)O)[C@H]1O; X1 = CCCCCOc1ccc(-c2cc(-c3ccc(C(=O)*)cc3)no2)cc1; Gln(3R-OH) = NC(=O)C[C@@H](O)[C@H](N)C(=O)O; Hyp = O=C(O)[C@@H]1C[C@@H](O)CN1

How the values were obtained:
[1] = tested on: S. cerevisiae Y525 overexpressing C. albicans MFS transporter MDR1a; test: MIC, recombinant S. cerevisiae strain Y525 CaMDR1a; type: cell-based; settings: SD medium pH 6.8, 30 °C; 80% inhibition of growth
Protocol: (§1) Minimum inhibitory concentration (MIC) were determined according to recommendations outlined in the Clinical and Laboratory Standards Institute (CLSI) document M27-Ed4E[39] with modifications. Sabouraud dextrose (SD) medium (pH 6.8) was used instead of RPMI-1640 for inoculum and growth of the S. cerevisiae strains and cultures were incubated at 30 °C. […] Stock solutions of each agent were prepared in DMSO and the final concentration of DMSO was 1% (v/v) in SD. […] The final concentration of all other compounds ranged from 0.03–16 μg mL^−1. Three biological repeats were performed.

[2] = tested on: S. cerevisiae Y2300 overexpressed wild-type ScCYP51; test: MIC, recombinant S. cerevisiae strain Y2300 ScCYP51; type: cell-based; settings: Saccharomyces cerevisiae
Protocol: (§2) The most promising thiazole derivative 7b, and the extended amide derivatives 13a and 13b were evaluated against a panel of recombinant S. cerevisiae strains[24,31,32] expressing control levels of wild-type CYP51 (ScCYP51), overexpressed wild-type ScCYP51, overexpressed azole-resistant ScCYP51 Y140F/H mutations (S. cerevisiae Y140 equivalent to C. albicans Y132), overexpressed C. albicans efflux pumps MDR1a or CDR1B and overexpressed H. sapiens wild-type CYP51 (HsCYP51) (Table 3) at 24 and 48 h with each assay performed in triplicate.
as §1

[3] = tested on: S. cerevisiae Y2760 overexpressed H. sapiens wild-type CYP51 (HsCYP51); test: MIC, recombinant S. cerevisiae strain Y2760 HsCYP51; type: cell-based; settings: Saccharomyces cerevisiae
Protocol: as §2
The HsCYP51 ORF (NP_000777.1) was codon harmonized (ch) using DNA 2.0 for expression in S. cerevisiae and synthesized by ATUM (Newark, Ca, USA). The 3′ end of the ORF was extended to encode EQKI of the ScErg11 C-terminus, followed by a GGR linker and a 6xHis tag. Strain Y2514 was prepared by transforming host strain Y1857 with a transformation cassette including the above construct together with the ScPGK transcription terminator and URA3 selection marker located downstream, bordered by upstream and downstream parts of ScPDR5 gene identical to sequences in ScErg11 over-expressing strain Y941. Strain Y2514 constitutively overexpressed HsCYP51ch-6xHis and URA3 from the ScPDR5 locus.
Strain Y2757 (Y2514, PDR15::HsCPRch-6xHis-LoxP-HIS1-LoxP) was prepared by co-expressing the cognate reductase HsCRP in strain Y2514. Codon harmonisation and synthesis of human NADPH-cytochrome P450 reductase isoform 2 (HsCPRch, NP_001369584.1) ORF was performed by ATUM. The gene was 3′ extended with a sequence encoding GGR-6xHIS. A transformation cassette was prepared by recombinant PCR to include the HsCPRch ORF with 657 nucleotides the ScPDR5 promoter upstream, and the ScPGK terminator followed by the LoxP flanked ScHIS1 selection marker downstream. ScPDR15 specific arms bordering the construct enabled the cassette to be integrated between the nucleotide 441 of the 5′ UTR and nucleotide 1 of the 3′ UTR in PDR15.
Strain Y2758 (Y2757 ΔHIS1) was made using the following steps. Strain Y2757 was transformed with the pSH69 pGAL1-cre plasmid (Euroscarf, Germany) via selection on hygromycin (75 μg mL^−1) containing YPD plates. A single hygromycin positive colony was inoculated in 1% yeast extract, 2% peptone and 2% of galactose broth and incubated for 16 hours at 30 °C with shaking. The diluted culture was then plated on YPD agar and replica-plated on YPD + hygromycin and SD-HIS dropout agar plates. Deletion of the HIS selection marker downstream of HsCPRch-6xHis in the PDR15 locus was confirmed in double His and hygromycin negative isolates by PCR and DNA sequence analysis.
The endogenous ScERG11 ORF in strain Y2758 was removed by transforming with a LoxP- ScHIS1 containing cassette with arms complementing from +387 nucleotides in the 5′UTR and −60 nucleotides in the 3′UTR of the ScERG11 locus, resulting in strain Y2760 (ADΔΔ PDR5::HsCYP51ch-6×HIS-URA3; PDR15::HsCPRch6×HIS-LoxP, ΔERG11-LoxP-HIS1-LoxP).
as §1

[4] = tested on: S. cerevisiae Y2513 overexpressed ScCYP51 Y140H; test: MIC, recombinant S. cerevisiae strain Y2513 Y140H; type: cell-based; settings: Saccharomyces cerevisiae, pH 6.8, read-out: MIC Y2513 Y140H
Protocol: as §2, §1

[5] = tested on: S. cerevisiae Y2301 overexpressed ScCYP51 Y140F; test: MIC, recombinant S. cerevisiae strain Y2301 Y140F; type: cell-based; settings: Saccharomyces cerevisiae, pH 6.8, read-out: MIC Y2301 Y140F
Protocol: as §2, §1

[6] = tested on: S. cerevisiae Y570 overexpressing C. albicans ABC transporter CDR1B; test: MIC, recombinant S. cerevisiae strain Y570 CaCDR1B; type: cell-based; settings: SD medium pH 6.8, 30 °C; 80% inhibition of growth
Protocol: as §2, §1

[7] = tested on: C. albicans laboratory strain SC5314; test: C. albicans susceptibility testing (CLSI broth microdilution MIC), strain SC5314; type: cell-based, Candida albicans; settings: RPMI 1640, 37 °C, read at 48 h; for MIC: Candida albicans, SC5314, 48 h
From the text: (§3) Each novel compound was screened against C. albicans wild-type clinical isolate CA14 and C. albicans laboratory strain SC5314 using the standardised CLSI M27-S4 broth dilution method.[28] […] This might be explained by the clog P data as the more lipophilic compounds should more readily penetrate the fungal membrane resulting in improved uptake or may relate to optimal fill of the small hydrophobic pocket leading to improved binding.
(§4) Antifungal MIC values were obtained according to the CLSI microdilution method for yeasts.[28]C. albicans strains CA14 and SC5314 were tested in triplicate. Cultures were diluted to 2.5 × 10^3 cells per mL in RPMI 1640 (Sigma), buffered with 0.165 M MOPS, pH 7.0. Antifungal compounds were dissolved in DMSO and added at a final concentration of 1% v/v DMSO. Plates were incubated at 37 °C and read at 48 h.

[8] = tested on: C. albicans wild-type clinical isolate CA14; test: C. albicans susceptibility testing (CLSI broth microdilution MIC), strain CA14; type: cell-based, Candida albicans; settings: RPMI 1640, 37 °C, read at 48 h; for MIC: Candida albicans
From the text: as §3, §4

native CaCYP51 = target: T1, native CaCYP51 (Candida albicans, UniProt P10613); test: CaCYP51 type II ligand binding affinity (Kd) from difference spectra saturation curves
T1 construct: made in house; host or cells: E. coli
Protocol: Azole titration was performed in triplicate.
The ligand–CaCYP51 complex was determined by non-linear regression (Levenberg–Marquardt algorithm) using a rearrangement of the Morrison equation for tight ligand binding,[38] while weak ligand binding was calculated by the Michaelis–Menten equation. Curve fitting for novel azole saturation curves was performed using the computer program ProFit 6.1.12 (QuantumSoft, Zurich, Switzerland) for Mac OSX. Kd values were determined for each of the three replicate titrations per azole compound and then mean Kd values and standard deviations calculated.

[9] = tested on: S. cerevisiae Y2411 parent (control levels of wild-type ScCYP51); test: MIC, recombinant S. cerevisiae strain Y2411 parent; type: cell-based; settings: Saccharomyces cerevisiae
Protocol: as §2, §1

[10] = target: T2, C. albicans CYP51 (CaCYP51) (Candida albicans, UniProt P10613); test: CaCYP51 reconstitution assay (IC50); type: biochemical; settings: 1 μM CaCYP51, 60 μM lanosterol, 15 min at 37 °C
T2 construct: made in house; host or cells: E. coli
Protocol: Derivatives with a MIC <1 μg mL^−1 were chosen for IC50 testing.
C. albicans CYP51 was overexpressed in E. coli and purified and CaCYP51 reconstitutions assays performed.[10,37] The final reaction volume of 500 μL, contained; 1 μM C. albicans CYP51, 2 μM Homo sapiens cytochrome P450 reductase (CPR) (UniProtKB accession number P16435), 60 μM lanosterol, 50 μM dilaurylphosphatidylcholine, 4% w/v 2-hydroypropyl-cyclodextrin, 0.4 mg mL^−1 isocitrate dehydrogenase, 25 mM trisodium isocitrate, 50 mM NaCl, 5 mM MgCl2, and 40 mM MOPS (morpholinepropanesulfonic acid, pH 7.2). Antifungal compounds were added in 2.5 μL DMSO. The reaction was started by the addition of 4 mM NADPH-tetrasodium salt. Samples were shaken for 15 min at 37 °C and sterol metabolites extracted with ethyl acetate and derivatised with BSTFA.

[11] = SD medium pH 6.8, 30 °C, 80% inhibition of growth, read-out: MIC Y2300 ScCYP51
[12] = SD medium pH 6.8, 30 °C, 80% inhibition of growth, read-out: MIC Y2760 HsCYP51
[13] = 2.5 μM native CaCYP51, mean ± SD of three titrations, read-out: K d
[14] = SD medium pH 6.8, 30 °C, 80% inhibition of growth, read-out: MIC Y2411 parent

T1 sequence (P10613 whole entry): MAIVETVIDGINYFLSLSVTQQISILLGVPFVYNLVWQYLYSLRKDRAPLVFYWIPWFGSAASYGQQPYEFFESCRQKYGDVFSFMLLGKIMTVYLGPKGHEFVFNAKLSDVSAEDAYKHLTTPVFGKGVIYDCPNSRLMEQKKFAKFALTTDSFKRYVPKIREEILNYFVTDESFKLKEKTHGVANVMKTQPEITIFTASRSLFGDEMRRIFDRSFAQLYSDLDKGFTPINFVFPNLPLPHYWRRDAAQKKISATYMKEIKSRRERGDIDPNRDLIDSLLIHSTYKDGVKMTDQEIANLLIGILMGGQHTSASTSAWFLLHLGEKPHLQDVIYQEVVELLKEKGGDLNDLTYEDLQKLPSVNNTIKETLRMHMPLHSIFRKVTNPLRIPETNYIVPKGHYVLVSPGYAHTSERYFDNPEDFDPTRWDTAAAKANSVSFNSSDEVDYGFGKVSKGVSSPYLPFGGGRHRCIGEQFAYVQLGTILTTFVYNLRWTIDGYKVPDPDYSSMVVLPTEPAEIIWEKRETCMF
T2 sequence (P10613 whole entry): as above

| Compound | MIC [1] [µg/mL] | MIC [2, 11] [µg/mL] | MIC [3, 12] [µg/mL] | MIC [4] [µg/mL] | MIC [5] [µg/mL] | MIC [6] [µg/mL] | MIC [7] [µg/mL] | MIC SC5314 [7] [µg/mL] | MIC [8] [µg/mL] | MIC CA14 [8] [µg/mL] | Kd (native CaCYP51; [13]) [nM] | MIC [9, 14] [µg/mL] | IC50 [10] [nM] | Kd (native CaCYP51) [nM] | MIC ([2]; pH 6.8, read-out: MIC Y2300 ScCYP51) [µg/mL] | MIC ([3]; pH 6.8, read-out: MIC Y2760 HsCYP51) [µg/mL] | MIC ([9]; pH 6.8, read-out: MIC Y2411 parent) [µg/mL] |
| --- | --- | --- | --- | --- | --- | --- | --- | --- | --- | --- | --- | --- | --- | --- | --- | --- | --- |
| O=C(NCC(O)(Cn1cncn1)c1ccc(Cl)cc1Cl)c1ccc(NC(=O)c2ccc(Cl)cc2)cc1 (centres unmarked) [13b, 4-Chloro-N-(4-((2-(2,4-dichlorophenyl)-2-hydroxy-3-(1H-1,2,4-triazol-1-yl)propyl)carbamoyl)phenyl)benzamide] | 0.03 to 0.06 | 0.25 | 4 to 8 | 0.125 | 0.25 | > 16 | < 0.03 | <0.03 | < 0.03 | <0.03 | 166 ± 39 | 0.03 to 0.06 | 480 | – | – | – | – |
| O=C(NCC(O)(Cn1cncn1)c1ccc(Cl)cc1Cl)c1csc(Cl)n1 (centres unmarked) [7b, 2-Chloro-N-(2-(2,4-dichlorophenyl)-2-hydroxy-3-(1H-1,2,4-triazol-1-yl)propyl)thiazole-4-carboxamide] | 2 | 0.5 to 1 | > 16 | 2 to 4 | 4 | > 16 | < 0.03 | <0.03 | < 0.03 | <0.03 | 106 ± 15 | 0.125 | 410 | – | – | – | – |
| OC(Cn1cncn1)(Cn1cncn1)c1ccc(F)cc1F [FLZ, Fluconazole, reference compound] | 32 | 16 | > 128 | 32 | 32 | > 128 | 0.125 (≈ 0.408 µM) | – | 0.125 (≈ 0.408 µM) | – | – | 4 | – | 31 ± 8 | – | – | – |
| O=C(NCC(O)(Cn1cncn1)c1ccc(Cl)cc1)c1ccc(NC(=O)c2ccc(Cl)cc2)cc1 (centres unmarked) [13a, 4-Chloro-N-(4-((2-(4-chlorophenyl)-2-hydroxy-3-(1H-1,2,4-triazol-1-yl)propyl)carbamoyl)phenyl)benzamide] | 0.125 | 1 to 2 | > 16 | 1 | 1 to 2 | > 16 | < 0.03 | <0.03 | < 0.03 | <0.03 | 46 ± 8 | 0.25 | 560 | – | – | – | – |
| CCCCCOc1ccc(-c2cc(-c3ccc(C(=O)N[C@H]4C[C@@H](O)[C@@H](O)NC(=O)[C@@H]5[C@@H](O)[C@@H](C)CN5C(=O)[C@H]([C@H](O)CC(N)=O)NC(=O)[C@H]([C@H](O)[C@@H](O)c5ccc(O)c(OS(=O)(=O)O)c5)NC(=O)[C@@H]5C[C@@H](O)CN5C(=O)[C@H]([C@@H](C)O)NC4=O)cc3)no2)cc1 [Micafungin, reference compound] (X1-[Orn(4R-OH,5R-OH)]T[Hyp][hTyr(3S-OH,4S-OH,3'-OSO3H)][Gln(3R-OH)][Pro(3S-OH,4S-Me)]; lactam 1-C) | 0.125 | – | – | 0.125 | 0.125 | 0.125 | – | – | – | – | – | – | – | – | 0.125 | 0.125 | 0.125 |
